Results from patent US10118901B2 (priority 2013, dated 2018).

Columns and labels:
Type in all cases: cell-based, human
SK-MEL-5 = assay: NCI-60 screen at 10 μM: SK-MEL-5; conditions: Melanoma SK-MEL-5; 10 μM single dose; 48 hrs
Method: (§1) NL-101 and CY-102 was sent to U.S. National Cancer Institute (NCI) for NCI 60-cell line screening using a single compound dose (10 μM).
(§2) The human tumor cell lines of the cancer screening panel were grown in RPMI 1640 medium containing 5% fetal bovine serum (5% FBS) and 2 mM L-glutamine. For a typical screening experiment, cells were inoculated into 96-well microtiter plates in 100 μL, at plating densities ranging from 5,000 to 40,000 cells/well depending on the doubling time of individual cell lines. After cell inoculation, the microtiter plates were incubated at 37° C., 5% CO2, 95% air, and 100% relative humidity for 24 h prior to addition of experimental compounds. […]
(§3) Following drug addition, the plates were incubated for an additional 48 hrs at 37° C., 5% CO2, 95% air, and 100% relative humidity. […] Bound stain was subsequently solubilized with 10 mM trizma base, and the absorbance was read on an automated plate reader at a wavelength of 515 nm. […]
(§4) Using the seven absorbance measurements [time zero, (Tz), control growth, (C), and test growth in the presence of drug at the 10 μM concentration levels (Ti)], percentage growth was calculated at each of the drug concentrations levels. Percentage growth inhibition was calculated as: [(Ti−Tz)/(C−Tz)]×100 for which Ti>/=Tz or [(Ti−Tz)/Tz]×100 for which Ti<Tz.

SK-MEL-2 = assay: NCI-60 screen at 10 μM: SK-MEL-2; conditions: Melanoma SK-MEL-2; 10 μM single dose; 48 hrs
Method: as §1, §2, §3, §4

A549/ATCC = assay: NCI-60 screen at 10 μM: A549/ATCC; conditions: NSCLC A549/ATCC; 10 μM single dose; 48 hrs
Method: as §1, §2, §3, §4

HOP-92 = assay: NCI-60 screen at 10 μM: HOP-92; conditions: NSCLC HOP-92; 10 μM single dose; 48 hrs
Method: as §1, §2, §3, §4

HL-60(TB) = tested on: HL-60(TB)
BT-549 = assay: NCI-60 screen at 10 μM: BT-549; conditions: Breast Cancer BT-549; 10 μM single dose; 48 hrs
Method: as §1, §2, §3, §4

CAKI-1 = assay: NCI-60 screen at 10 μM: CAKI-1; conditions: Renal Cancer CAKI-1; 10 μM single dose; 48 hrs
Method: as §1, §2, §3, §4

TK-10 = assay: NCI-60 screen at 10 μM: TK-10; conditions: Renal Cancer TK-10; 10 μM single dose; 48 hrs
Method: as §1, §2, §3, §4

HS 578T = assay: NCI-60 screen at 10 μM: HS 578T; conditions: Breast Cancer HS 578T; 10 μM single dose; 48 hrs
Method: as §1, §2, §3, §4

SF-268 = assay: NCI-60 screen at 10 μM: SF-268; conditions: CNS Cancer (Glioma) SF-268; 10 μM single dose; 48 hrs
Method: as §1, §2, §3, §4

SF-295 = assay: NCI-60 screen at 10 μM: SF-295; conditions: CNS Cancer (Glioma) SF-295; 10 μM single dose; 48 hrs
Method: as §1, §2, §3, §4

OVCAR-8 = assay: NCI-60 screen at 10 μM: OVCAR-8; conditions: Ovarian Cancer OVCAR-8; 10 μM single dose; 48 hrs
Method: as §1, §2, §3, §4

MCF7 = assay: NCI-60 screen at 10 μM: MCF7; conditions: Breast Cancer MCF7; 10 μM single dose; 48 hrs
Method: as §1, §2, §3, §4

K-562 = assay: NCI-60 screen at 10 μM: K-562; conditions: Leukemia K-562; 10 μM single dose; 48 hrs
Method: as §1, §2, §3, §4

M14 = assay: NCI-60 screen at 10 μM: M14; conditions: Melanoma M14; 10 μM single dose; 48 hrs
Method: as §1, §2, §3, §4

UACC-257 = assay: NCI-60 screen at 10 μM: UACC-257; conditions: Melanoma UACC-257; 10 μM single dose; 48 hrs
Method: as §1, §2, §3, §4

OVCAR-3 = assay: NCI-60 screen at 10 μM: OVCAR-3; conditions: Ovarian Cancer OVCAR-3; 10 μM single dose; 48 hrs
Method: as §1, §2, §3, §4

NCI-H460 = assay: NCI-60 screen at 10 μM: NCI-H460; conditions: NSCLC NCI-H460; 10 μM single dose; 48 hrs
Method: as §1, §2, §3, §4

HCT-116 = assay: NCI-60 screen at 10 μM: HCT-116; conditions: Colon Cancer HCT-116; 10 μM single dose; 48 hrs
Method: as §1, §2, §3, §4

COLO 205 = assay: NCI-60 screen at 10 μM: COLO 205; conditions: Colon Cancer COLO 205; 10 μM single dose; 48 hrs
Method: as §1, §2, §3, §4

MDA-MB-468 = assay: NCI-60 screen at 10 μM: MDA-MB-468; conditions: Breast Cancer MDA-MB-468; 10 μM single dose; 48 hrs
Method: as §1, §2, §3, §4

OVCAR-5 = assay: NCI-60 screen at 10 μM: OVCAR-5; conditions: Ovarian Cancer OVCAR-5; 10 μM single dose; 48 hrs
Method: as §1, §2, §3, §4

SN12C = assay: NCI-60 screen at 10 μM: SN12C; conditions: Renal Cancer SN12C; 10 μM single dose; 48 hrs
Method: as §1, §2, §3, §4

SNB-19 = assay: NCI-60 screen at 10 μM: SNB-19; conditions: CNS Cancer (Glioma) SNB-19; 10 μM single dose; 48 hrs
Method: as §1, §2, §3, §4

| Structure (SMILES) | Growth % (SK-MEL-5) [%] | Growth % (SK-MEL-2) [%] | Growth % (A549/ATCC) [%] | Growth % (HOP-92) [%] | Growth % (HL-60(TB)) [%] | Growth % (BT-549) [%] | Growth % (CAKI-1) [%] | Growth % (TK-10) [%] | Growth % (HS 578T) [%] | Growth % (SF-268) [%] | Growth % (SF-295) [%] | Growth % (OVCAR-8) [%] | Growth % (MCF7) [%] | Growth % (K-562) [%] | Growth % (M14) [%] | Growth % (UACC-257) [%] | Growth % (OVCAR-3) [%] | Growth % (NCI-H460) [%] | Growth % (HCT-116) [%] | Growth % (COLO 205) [%] | also measured |
| --- | --- | --- | --- | --- | --- | --- | --- | --- | --- | --- | --- | --- | --- | --- | --- | --- | --- | --- | --- | --- | --- |
| Cn1c(CCNCc2ccc(/C=C/C(=O)NO)cc2)nc2cc(N(CCCl)CCCl)ccc21 [CY-102] | −79.31 | −21.36 | −32.69 | −35.89 | −10.34 | −33.26 | −25.49 | −28.81 | 8.17 | −31.46 | −53.87 | −26.88 | −15.28 | 1.07 | −76.75 | −36.39 | −55.02 | 2.61 | −1.84 | −81.34 | Growth % (MDA-MB-468): −21.52%; Growth % (OVCAR-5): −3.75%; Growth % (SN12C): −1.53%; Growth % (SNB-19): −10.81% |
| Cn1c(CCCCCCC(=O)NO)nc2cc(N(CCCl)CCCl)ccc21 [NL-101] | −6.55 | 37.31 | 43.54 | 22.07 | 18.98 | 79.21 | 27.64 | 48.48 | 24.01 | 10.27 | 43.95 | 32.65 | 37.24 | 31.63 | 39.93 | 33.75 | 50.40 | 25.56 | 23.73 | 54.36 | Growth % (MDA-MB-468): −34.68%; Growth % (OVCAR-5): 66.28%; Growth % (SN12C): 17.91%; Growth % (SNB-19): 55.62% |
